Structures can show the parent of a compound that is named as a salt. Where two headings read alike, the source gives them in different places.
Columns and labels:
[1] = Acute toxicity in mice, seven day values; type: in vivo; conditions: mouse, in vivo, po, male NMRI mice, intragastrally
Experimental: (§1) Investigation of the Acute Toxicity Method:
(§2) The determination of the acute toxicity was carried out on male mice (NMRI) with a body weight of 18 to 23 g. All experimental animals were fasted for 20 hours before commencement of the investigation. Water was available ad libitum. Four animals belonged to each dosage group. The dosage sequence was logarithmic. The test substances were administered either in the form of aqueous solutions or as suspensions in 0.8% Methocel. The administered volumes amounted, in the case of subcutaneous administration, to 10 ml/kg body weight, in the case of intragastral administration to 20 ml/kg body weight.

[2] = system: carrageenin edema of the rat (paw edema); test: Antiphlogistic action on carrageenin edema of rats; type: in vivo; conditions: 3 h after carrageenin
Experimental: Investigation of the Antiphlogistic Action on Carrageenin Edema of Rats Method: Experimental animals were male rats (SIV 50), fasted for 20 hours, with a body weight of 110-160 g. Water was available ad libitum. After determination of the initial value of the paw volume of the right hind extremity, the test substances were administered intragastrally as suspension in 0.8% Methocel. Ten animals were used per dosage. The volume of administration amounted to 20 ml/kg body weight. The paw volume was measured plethysmometrically. Sixty minutes after intragastral administration of the test substances, 0.1 ml of a 1% carrageenin solution was injected subplanatary into the right hind paw. One and three hours after injection of the carrageenin, the paw volume of the oedematous paw was measured. The increase of the paw volume of the substance-treated animals after three hours was compared with that in the case of the control animals and the inhibition of the paw edema by the test substance was calculated as a percentage thereof.

[3] = system: thrombocyte aggregation (platelet-rich plasma); test: Collagen-induced thrombocyte aggregation in vitro (rats); type: cell-based, rat; conditions: for IC50: rat PRP, collagen-induced, 3 min incubation, end concentration lowering amplitude by 50%, read-out: C50-value (arith. M. + S.D.)
Experimental: Collagen-Induced Thrombocyte Aggregation In Vitro (Rats) Method: The test was carried out according to the method of BORN (Nature, 194, 927-929, 1962). As blood donors, there served male Sprague-Dawley SIV 50 rats with a body weight of 200 g. The blood sampling took place, under ether narcosis, from the retroorbital venous complex. Nine parts of blood were mixed with one part of 3.8% w/v tri-Na-citrate solution. After low speed centrifuging of the mixture at room temperature, the platelet-rich plasma (PRP, corresponding to erythrocyte-free supernatant) was removed and adjusted to a standard concentration of […]. As measurement instrument, there served an universal aggregometer (Braun, Melsungen), coupled with an Eppendorf photome[…] (Netheler and Hinz, Hamburg). In the investigation, 700 μl amounts of PRP were equilibrated in the aggregometer for five minutes at 37° C. and then mixed with 58 μl of the test substance solution or of a 0.9% NaCl solution (corresponding to the blank). After an incubation time of three minutes, the addition of 35 μl collagen suspension (collagen reagent HORM®, Hormon Chemie, Munchen) initiated the aggregation. A compensation recorder registered, in the following 15 minutes, the change of the transmission. The largest change of the transmission occurring in the period of time was called the amplitude (Amp) of the aggregation curve. Aggregation-inhibiting substances bring about a reduction of this amplitude; the inhibitory action (E) of a substance is calculated according to the following formula: E=[(Amp)blank -[…] ]×100(%) Dosage-action curves are produced on the basis of which their C50 values could be calculated. The C50 value gives the end concentration of a substance in the test system which leads to a lowering of the amplitude by 50%.

yeast fever of the rat = test: Antipyretic action on yeast fever of the rat; type: in vivo; conditions: 12% yeast 20 ml/kg SC, rectal
Experimental: Investigation of the Antipyretic Action on Yeast Fever of the Rat Method: Experimental animals were male rats (SIV 50), fasted for 20 hours, with a body weight of 115-165 g. For the production of an elevated body temperature, the animals received, 18 hours before administration of the test substances, 20 ml/kg body of a 12% dry yeast suspension subcutaneously in two to three depots. A control group received the corresponding volume of physiological NaCl solution injected subcutaneously. Ten animals were used per dosage. After three preliminary measurementds of the body temperature on the experimental day in 30-minute intervals, the test substance was administered intragastrally to the animals treated with yeast. The volume of administration amounted to 20 ml/kg body weight. A second control group treated with yeast, as well as the control group treated the previous day with physiological NaCl solution, received the corresponding vehicle instead of test substance. The body temperature of the experimental animals was measured rectally by means of thermocouple sensor 30, 60 minutes and then, in each case, hourly up to a total of five hours after substance administration.

[4] = system: stomach ulcer of the rat induced by indomethacin; test: Ulcer-protective action on stomach ulcer of the rat induced by indomethacin; type: in vivo; conditions: for Ulcer Inhibition in %: indomethacin 40 mg/kg
Experimental: Investigation of the Ulcer-Protective Action on Stomach Ulcer of the Rat Induced by Indomethacin. Method: Experimental animals were male rats (SIV 50), fasted for 20 hours, with a body weight of 150-200 g. Water was available ad libitum. 40 mg/kg indomethacin and the substance to be tested, as suspension in 0.8% Methocel, were simultaneously administered to the animals intragastrally. The control animals only received the corresponding dosage of indomethacin. Ten animals were used per experimental group. The administration volume amount to 10 ml/kg body weight. The animals were sacrificed five hours after administration. After removal of the stomachs and opening of the curvatura major, these were investigated with a stereo magnifying glass for the presence of ulcers. The assessment of the ulcers took place according to a point scheme proposed by M. Chaumontet et al. (Arzneim.-Forsch., 28, 2119, 1978). The ulcer index was calculated herefrom. The ulcer index of the animals treated with indomethacin and test substance was compared with that of the control animals only treated with indomethacin and the ulcer inhibition calculated therefrom in percent.

male mice (NMRI) = test: Acute toxicity in mice, seven day values; type: in vivo; conditions: intragastrally, 10080 min
Experimental: as §1, §2

Question: Which results are given for `CCSC1=C(C#N)C(c2ccccc2)(c2ccccc2)C(=O)N1CCN1CCCCC1.Cl` [Compound 1, 2-Ethylthio-5-oxo-4,4-diphenyl-1-(2-piperidinoethyl)-2-pyrroline-3-carbonitrile hydrochloride]?
Answer: LD50 at 168 h [1]: 1600 mg/kg; Inhibition of Paw Edema in % ([2]; 125 mg/kg intragastrally): 36%

Question: With `CSC1=C(C#N)C(c2ccc(N(C)C)cc2)(c2cccnc2)C(=O)N1CCCN(C)C` (centres unmarked) [Compound 21, 4-(4-Dimethylaminophenyl)-1-(3-dimethylaminopropyl)-2-methylthio-5-oxo-4-(3-pyridyl)-2-pyrroline-3-carbonitrile] as the molecule, how does the IC50 ([3]; 0.05 h) read?
Answer: 160 ± 20 µM

Question: What about the LD50 at 168 h [1] of the same molecule?
Answer: 1200 mg/kg

Question: With `CCSC1=C(C#N)C(c2ccccc2)(c2ccccc2)C(=O)N1CCCN1CCCCC1.O=C(O)C(=O)O` [Compound 15, 2-ethylthio-5-oxo-4,4-diphenyl-1-(3-piperidinopropyl)-2-pyrroline-3-carbonitrile oxalate] as the molecule, how does the body temperature, 60 (yeast fever of the rat; 60 minutes after 150 mg/kg IG) read?
Answer: 36.6 °C

Question: And the body temperature, 120 (yeast fever of the rat; 120 minutes after 150 mg/kg IG)?
Answer: 35.8 °C

Question: And the body temperature, 180 (yeast fever of the rat; 180 minutes after 150 mg/kg IG)?
Answer: 35.9 °C

Question: What about the body temperature, 240 (yeast fever of the rat; 240 minutes after 150 mg/kg IG) of the same molecule?
Answer: 36.4 °C

Question: And the body temperature, 300 (yeast fever of the rat; 300 minutes after 150 mg/kg IG)?
Answer: 37 °C

Question: What about the LD50 at 168 h [1] of the same molecule?
Answer: 700 mg/kg

Question: And the “Ulcer Inhibition in %” value ([4]; 150 mg/kg intragastrally)?
Answer: 29%

Question: And the “Inhibition of Paw Edema in %” value ([2]; 150 mg/kg intragastrally)?
Answer: 39%

Question: For “1-(2-dimethylaminopropyl)-2-methylthio-5-oxo-4,4-diphenyl-2-pyrroline-3-carbonitrile [Compound 6]”, which body temperature, 30 (yeast fever of the rat; 30 minutes after 250 mg/kg IG) is on record?
Answer: 37 °C

Question: And the body temperature, 60 (yeast fever of the rat; 60 minutes after 250 mg/kg IG)?
Answer: 36 °C

Question: And the body temperature, 120 (yeast fever of the rat; 120 minutes after 250 mg/kg IG)?
Answer: 35.2 °C

Question: What about the body temperature, 180 (yeast fever of the rat; 180 minutes after 250 mg/kg IG) of the same molecule?
Answer: 34.7 °C

Question: What about the body temperature, 240 (yeast fever of the rat; 240 minutes after 250 mg/kg IG) of the same molecule?
Answer: 35.1 °C

Question: What about the body temperature, 300 (yeast fever of the rat; 300 minutes after 250 mg/kg IG) of the same molecule?
Answer: 35.6 °C

Question: And the IC50 [3]?
Answer: 190 ± 40 µM

Question: And the LD50 (male mice (NMRI))?
Answer: 1200 mg/kg

Question: And the “Inhibition of Paw Edema in %” value ([2]; 125 mg/kg intragastrally)?
Answer: 36%

Question: Which IC50 ([3]; 0.05 h) does the source give for `CC(C)SC1=C(C#N)C(c2ccccc2)(c2ccccc2)C(=O)N1CCCN(C)C` [Compound 8, 2-Isopropylthio-1-(3-dimethylaminopropyl)-5-oxo-4,4-diphenyl-2-pyrroline-3-carbonitrile] here?
Answer: 270 ± 50 µM

Question: What about the LD50 at 168 h [1] of the same molecule?
Answer: 1400 mg/kg

Question: For `CCSC1=C(C#N)C(c2ccccc2)(c2ccccc2)C(=O)N1CCCN(CC)CC` [Compound 16, 1-(3-diethylaminopropyl)-2-ethylthio-5-oxo-4,4-diphenyl-2-pyrroline-3-carbonitrile hydrochloride], which IC50 ([3]; 0.05 h) is on record?
Answer: 140 ± 60 µM

Question: Which LD50 at 168 h [1] does the source give for `CCSC1=C(C#N)C(c2ccccc2)(c2ccccc2)C(=O)N1CCCN1CCOCC1` [Compound 5, 2-ethylthio-1-(3-morpholinopropyl)-5-oxo-4,4-diphenyl-2-pyrroline-3-carbonitrile] here?
Answer: > 1600 mg/kg

Question: And the “Ulcer Inhibition in %” value ([4]; 100 mg/kg intragastrally)?
Answer: 52%

Question: What about the ulcer-protective action ([4]; in words) of the same molecule?
Answer: the most effective representative

Question: And the “Inhibition of Paw Edema in %” value ([2]; 37.5 mg/kg intragastrally)?
Answer: 22%

Question: And the “Inhibition of Paw Edema in %” value ([2]; 75 mg/kg intragastrally)?
Answer: 45%

Question: What does the source list for `CSC1=C(C#N)C(c2ccccc2)(c2ccccc2)C(=O)N1CCCN1CCCCC1` [Compound 12, 2-methylthio-5-oxo-4,4-diphenyl-1-(3-piperidinopropyl)-2-pyrroline-3-carbonitrile]?
Answer: IC50 ([3]; 0.05 h): 150 ± 20 µM; LD50 at 168 h [1]: > 1600 mg/kg

Question: With `CCSC1=C(C#N)C(c2ccccc2)(c2ccccc2)C(=O)N1CCCN(C)C` [Compound 3, 2-ethylthio-1-(3-dimethylaminopropyl)-5-oxo-4,4-diphenyl-2-pyrroline-3-carbonitrile hydrochloride] as the molecule, how does the IC50 ([3]; 0.05 h) read?
Answer: 150 ± 40 µM

Question: For `CCCSC1=C(C#N)C(c2ccccc2)(c2ccccc2)C(=O)N1CCN(CC)CC` [Compound 9, 1-(2-Diethylaminoethyl)-5-oxo-4,4-diphenyl-2-propylthio-2-pyrroline-3-carbonitrile], which “Ulcer Inhibition in %” value ([4]; 250 mg/kg intragastrally) is on record?
Answer: 29%

Question: What does the source list for `CCSC1=C(C#N)C(c2ccccc2)(c2ccccc2)C(=O)N1CCCN` [Compound 17a, 1-(3-Aminopropyl)-2-ethylthio-5-oxo-4,4-diphenyl-2-pyrroline-3-carbonitrilehydrochloride]?
Answer: IC50 ([3]; 0.05 h): 60 µM; aggregation-inhibiting properties ([3]; in words): the most effective representative
